In test [1] the target is T1, Serine/threonine-protein kinase Nek1 (Homo sapiens, UniProt Q96PY6).
T1 sequence (Q96PY6 whole entry): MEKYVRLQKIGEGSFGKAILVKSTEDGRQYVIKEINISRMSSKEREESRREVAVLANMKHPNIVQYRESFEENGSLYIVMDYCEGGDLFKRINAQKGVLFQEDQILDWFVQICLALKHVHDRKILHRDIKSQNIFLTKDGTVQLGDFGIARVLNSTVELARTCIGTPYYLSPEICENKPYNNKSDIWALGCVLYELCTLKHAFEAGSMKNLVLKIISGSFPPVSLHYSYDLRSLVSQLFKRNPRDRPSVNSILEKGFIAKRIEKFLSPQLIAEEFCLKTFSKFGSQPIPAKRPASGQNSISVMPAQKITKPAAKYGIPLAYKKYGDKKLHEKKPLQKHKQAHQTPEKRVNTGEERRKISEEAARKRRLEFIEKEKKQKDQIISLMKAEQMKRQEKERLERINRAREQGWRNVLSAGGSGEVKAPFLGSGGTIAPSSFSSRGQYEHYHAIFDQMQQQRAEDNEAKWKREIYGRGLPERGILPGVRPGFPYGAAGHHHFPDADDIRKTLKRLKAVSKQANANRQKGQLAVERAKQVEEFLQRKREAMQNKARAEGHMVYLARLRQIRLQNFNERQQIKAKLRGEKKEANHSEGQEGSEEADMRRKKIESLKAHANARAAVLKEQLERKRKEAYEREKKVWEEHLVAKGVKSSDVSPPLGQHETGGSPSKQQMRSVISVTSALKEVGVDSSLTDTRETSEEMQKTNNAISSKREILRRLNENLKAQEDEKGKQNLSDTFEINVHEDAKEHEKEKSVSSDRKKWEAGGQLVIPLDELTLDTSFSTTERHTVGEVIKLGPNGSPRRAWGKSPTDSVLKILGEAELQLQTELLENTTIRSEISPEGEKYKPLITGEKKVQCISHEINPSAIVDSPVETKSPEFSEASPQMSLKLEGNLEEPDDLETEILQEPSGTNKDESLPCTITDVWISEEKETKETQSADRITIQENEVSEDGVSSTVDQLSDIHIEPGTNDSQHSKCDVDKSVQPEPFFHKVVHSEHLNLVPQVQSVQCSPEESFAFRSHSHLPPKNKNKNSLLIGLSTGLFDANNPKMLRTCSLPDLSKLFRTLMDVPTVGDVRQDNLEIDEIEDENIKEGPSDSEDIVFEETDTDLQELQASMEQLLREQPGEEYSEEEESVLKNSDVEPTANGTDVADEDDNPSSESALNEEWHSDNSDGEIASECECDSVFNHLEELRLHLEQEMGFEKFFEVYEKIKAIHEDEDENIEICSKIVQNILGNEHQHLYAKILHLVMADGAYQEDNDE

In test [2] the target is Mitogen-activated protein kinase kinase kinase kinase 5 (Homo sapiens, UniProt Q9Y4K4).
A further test concerns the target T2, Ephrin type-B receptor 3 (Homo sapiens, UniProt P54753).
T2 sequence (P54753 whole entry): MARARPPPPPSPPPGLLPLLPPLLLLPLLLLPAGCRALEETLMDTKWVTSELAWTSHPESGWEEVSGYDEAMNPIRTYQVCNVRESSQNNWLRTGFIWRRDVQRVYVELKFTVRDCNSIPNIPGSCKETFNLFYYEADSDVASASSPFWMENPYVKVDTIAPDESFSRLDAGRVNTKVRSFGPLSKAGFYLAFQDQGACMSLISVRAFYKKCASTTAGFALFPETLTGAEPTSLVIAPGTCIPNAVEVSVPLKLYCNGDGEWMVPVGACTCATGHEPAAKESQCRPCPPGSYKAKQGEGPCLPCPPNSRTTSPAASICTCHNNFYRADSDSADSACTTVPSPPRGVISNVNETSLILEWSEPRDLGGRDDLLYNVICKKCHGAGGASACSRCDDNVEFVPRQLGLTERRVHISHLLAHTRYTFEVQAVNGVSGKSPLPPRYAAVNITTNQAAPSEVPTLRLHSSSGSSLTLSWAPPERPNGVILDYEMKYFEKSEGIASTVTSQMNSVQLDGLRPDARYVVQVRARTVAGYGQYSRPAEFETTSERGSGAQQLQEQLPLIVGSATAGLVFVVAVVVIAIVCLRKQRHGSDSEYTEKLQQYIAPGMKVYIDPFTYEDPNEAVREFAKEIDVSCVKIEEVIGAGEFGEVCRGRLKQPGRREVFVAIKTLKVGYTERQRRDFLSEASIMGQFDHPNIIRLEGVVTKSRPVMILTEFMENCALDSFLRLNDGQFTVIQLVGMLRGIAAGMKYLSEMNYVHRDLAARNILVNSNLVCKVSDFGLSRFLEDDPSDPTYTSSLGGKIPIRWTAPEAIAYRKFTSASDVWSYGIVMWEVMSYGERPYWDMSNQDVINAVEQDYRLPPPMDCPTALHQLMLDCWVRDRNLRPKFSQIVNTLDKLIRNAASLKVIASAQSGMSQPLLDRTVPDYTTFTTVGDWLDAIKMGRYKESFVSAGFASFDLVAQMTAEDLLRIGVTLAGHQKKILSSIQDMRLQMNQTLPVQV

Test [3] addresses T3, Non-receptor tyrosine-protein kinase TNK1 (Homo sapiens, UniProt Q13470).
T3 sequence (Q13470 whole entry): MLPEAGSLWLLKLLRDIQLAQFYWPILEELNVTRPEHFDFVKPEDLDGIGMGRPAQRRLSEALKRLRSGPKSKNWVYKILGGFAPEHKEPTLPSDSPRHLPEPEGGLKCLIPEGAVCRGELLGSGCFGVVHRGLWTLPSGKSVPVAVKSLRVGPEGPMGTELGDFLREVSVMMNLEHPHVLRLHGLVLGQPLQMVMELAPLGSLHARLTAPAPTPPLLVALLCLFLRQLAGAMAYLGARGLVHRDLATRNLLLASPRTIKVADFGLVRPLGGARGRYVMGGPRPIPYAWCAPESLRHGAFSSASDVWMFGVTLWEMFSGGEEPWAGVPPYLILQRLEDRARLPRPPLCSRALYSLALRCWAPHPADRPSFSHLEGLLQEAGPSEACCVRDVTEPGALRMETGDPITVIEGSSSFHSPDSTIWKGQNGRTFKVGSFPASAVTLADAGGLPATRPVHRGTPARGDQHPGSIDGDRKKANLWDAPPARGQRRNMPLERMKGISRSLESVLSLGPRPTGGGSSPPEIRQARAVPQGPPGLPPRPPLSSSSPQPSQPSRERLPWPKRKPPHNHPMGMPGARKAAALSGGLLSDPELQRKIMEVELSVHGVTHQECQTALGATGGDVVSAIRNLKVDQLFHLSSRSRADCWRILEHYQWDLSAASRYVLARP

Test [4] deals with Bone morphogenetic protein receptor type-1B (Homo sapiens, UniProt O00238).
For test [5], the target named is Dual specificity tyrosine-phosphorylation-regulated kinase 1A (Homo sapiens, UniProt Q13627).

Activity calls are given as the source filed them. Cut-off read from the data, not from the text of the source, for most assays here: actives have a measured Kd and inactives only a lower limit.
Note: in the data inactive means no Kd found up to 30 µM.

Chain of Bone morphogenetic protein receptor type-1B (O00238 whole entry): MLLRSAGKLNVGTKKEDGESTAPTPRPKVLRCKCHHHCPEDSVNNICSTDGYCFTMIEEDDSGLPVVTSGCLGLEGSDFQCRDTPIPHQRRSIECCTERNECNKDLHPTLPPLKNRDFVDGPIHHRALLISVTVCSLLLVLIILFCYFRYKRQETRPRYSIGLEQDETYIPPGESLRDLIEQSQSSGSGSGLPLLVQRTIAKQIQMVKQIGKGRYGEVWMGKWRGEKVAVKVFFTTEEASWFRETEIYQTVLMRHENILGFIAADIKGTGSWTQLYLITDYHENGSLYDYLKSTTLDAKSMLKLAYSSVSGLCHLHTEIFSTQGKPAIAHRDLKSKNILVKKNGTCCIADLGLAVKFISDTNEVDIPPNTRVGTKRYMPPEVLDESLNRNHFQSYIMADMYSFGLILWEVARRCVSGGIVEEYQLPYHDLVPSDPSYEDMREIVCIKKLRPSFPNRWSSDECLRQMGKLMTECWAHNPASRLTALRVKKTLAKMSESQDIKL
Chain of Mitogen-activated protein kinase kinase kinase kinase 5 (Q9Y4K4 whole entry): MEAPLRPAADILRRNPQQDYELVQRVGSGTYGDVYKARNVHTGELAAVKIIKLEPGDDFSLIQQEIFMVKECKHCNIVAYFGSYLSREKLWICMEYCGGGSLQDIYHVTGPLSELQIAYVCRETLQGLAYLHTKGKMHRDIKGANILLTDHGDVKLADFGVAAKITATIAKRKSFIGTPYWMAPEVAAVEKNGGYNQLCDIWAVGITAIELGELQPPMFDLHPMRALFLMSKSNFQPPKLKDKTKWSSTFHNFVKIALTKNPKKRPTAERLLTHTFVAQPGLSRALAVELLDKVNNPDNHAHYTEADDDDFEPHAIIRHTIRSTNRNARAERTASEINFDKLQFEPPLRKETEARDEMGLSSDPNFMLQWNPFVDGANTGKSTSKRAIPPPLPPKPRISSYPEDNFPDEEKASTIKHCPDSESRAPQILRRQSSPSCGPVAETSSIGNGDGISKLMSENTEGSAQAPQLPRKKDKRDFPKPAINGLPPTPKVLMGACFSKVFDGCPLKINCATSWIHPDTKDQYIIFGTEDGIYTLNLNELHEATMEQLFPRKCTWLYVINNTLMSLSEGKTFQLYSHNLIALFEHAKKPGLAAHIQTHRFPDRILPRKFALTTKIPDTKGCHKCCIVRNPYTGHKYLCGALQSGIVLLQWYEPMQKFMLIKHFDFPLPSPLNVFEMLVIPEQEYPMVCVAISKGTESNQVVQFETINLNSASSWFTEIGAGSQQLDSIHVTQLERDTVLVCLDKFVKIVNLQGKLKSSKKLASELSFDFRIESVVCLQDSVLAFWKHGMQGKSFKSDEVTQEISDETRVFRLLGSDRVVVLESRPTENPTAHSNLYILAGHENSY

Broadly, the Kd is the equilibrium constant for the complex coming apart. Consider `CCN(CCCOc1ccc2c(Nc3cc(CC(=O)Nc4cccc(F)c4)n[nH]3)ncnc2c1)CCOP(=O)(O)O` [BARASERTIB], for which the Kd in test [1] is > 30 µM (inactive); in test [2], 2.24 µM (active); on Ephrin type-B receptor 3 it was > 30 µM (inactive); in test [3], > 30 µM (inactive); in test [4], > 30 µM (inactive).
Take `C=CCn1c(=O)c2cnc(Nc3ccc(N4CCN(C)CC4)cc3)nc2n1-c1cccc(C(C)(C)O)n1` [ADAVOSERTIB]: the Kd (in test [1]; on Ephrin type-B receptor 3; in test [5]; in test [3]; in test [4]) was > 30 µM (inactive) each time.
Turning to `COc1cc2ncnc(Nc3ccc(F)c(Cl)c3)c2cc1NC(=O)/C=C/CN1CCCCC1` [DACOMITINIB ANHYDROUS], the Kd (in test [1]; in test [2]; at Ephrin type-B receptor 3; in test [5]; in test [3]; in test [4]) was > 30 µM (inactive) throughout.
Regarding `COCCN1CCN(Cc2ccc(-c3n[nH]c4c3C(=O)c3c(NC(=O)NN5CCOCC5)cccc3-4)cc2)CC1` [RGB-286638], the Kd (in test [1]; in test [2]; at Ephrin type-B receptor 3; in test [3]; in test [4]) was > 30 µM (inactive) each time.
In the case of `O=C(NOC[C@H](O)CO)c1ccc(F)c(F)c1Nc1ccc(I)cc1F` [MIRDAMETINIB], the Kd (in test [1]; in test [2]; on Ephrin type-B receptor 3; in test [5]; in test [3]; in test [4]) was > 30 µM (inactive) each time.
Regarding `CN1CCN(c2nc(C3=C(c4c[nH]c5ccccc45)C(=O)NC3=O)c3ccccc3n2)CC1` [SOTRASTAURIN], the Kd (in test [1]; at Ephrin type-B receptor 3; in test [5]; in test [3]; in test [4]) was > 30 µM (inactive) throughout.
As to `CCN1CCN(Cc2ccc(Nc3ncc(F)c(-c4cc(F)c5nc(C)n(C(C)C)c5c4)n3)nc2)CC1` [ABEMACICLIB], the Kd (in test [1]; in test [2]; on Ephrin type-B receptor 3; in test [3]; in test [4]) was > 30 µM (inactive) throughout.
Take `CN(c1ncccc1CNc1nc(Nc2ccc3c(c2)CC(=O)N3)ncc1C(F)(F)F)S(C)(=O)=O` [PF-00562271]: the Kd (in test [1]; on Ephrin type-B receptor 3; in test [3]; in test [4]) was > 30 µM (inactive) in each case.
Turning to `c1cc(OCCN2CCCCC2)cc(-c2n[nH]c3ccc(-c4nc[nH]n4)cc23)c1` [CC-401], the Kd (in test [1]; in test [2]; at Ephrin type-B receptor 3; in test [3]; in test [4]) was > 30 µM (inactive) each time.
For `COc1cccc(Nc2ncnn3ccc(CN4CC[C@@H](N)[C@H](O)C4)c23)c1` [BMS-690514], the Kd is > 30 µM (inactive) in test [1], 3.29 µM (active) in test [5], > 30 µM (inactive) in test [3] and > 30 µM (inactive) in test [4].
Consider `O=S(=O)(c1cccc2cnccc12)N1CCCNCC1` [FASUDIL], for which the Kd (in test [1]; at Ephrin type-B receptor 3; in test [5]; in test [3]) was > 30 µM (inactive) throughout.
Regarding `N#CCNC(=O)c1ccc(-c2ccnc(Nc3ccc(N4CCOCC4)cc3)n2)cc1` [MOMELOTINIB], the Kd (in test [1]; on Ephrin type-B receptor 3; in test [5]; in test [3]; in test [4]) was > 30 µM (inactive) each time.
With `NC[C@@](O)(c1ccc(Cl)cc1)c1ccc(-c2cn[nH]c2)cc1` [AT-13148], the Kd (in test [1]; in test [2]; on Ephrin type-B receptor 3; in test [3]; in test [4]) was > 30 µM (inactive) throughout.
In the case of `O=C(O)c1ccc2c(c1)nc(Nc1cccc(Cl)c1)c1ccncc12` [SILMITASERTIB], the Kd (in test [1]; in test [2]; at Ephrin type-B receptor 3; in test [3]; in test [4]) was > 30 µM (inactive) throughout.
Turning to `CCc1nc(C(N)=O)c(Nc2ccc(N3CCC(N4CCN(C)CC4)CC3)c(OC)c2)nc1NC1CCOCC1` [GILTERITINIB], the Kd in test [1] is > 30 µM (inactive); in test [2], 3.12 µM (active); on Ephrin type-B receptor 3, > 30 µM (inactive); in test [5], > 30 µM (inactive); in test [3] it was 0.039 µM (active).
Turning to `C[C@]1(O)C[C@@H](c2nc(-c3ccc4ccc(-c5ccccc5)nc4c3)c3c(N)nccn32)C1` [LINSITINIB], the Kd in test [1] was > 30 µM (inactive); in test [2] it was 0.614 µM (active); at Ephrin type-B receptor 3 it was > 30 µM (inactive); in test [3], > 30 µM (inactive); in test [4], > 30 µM (inactive).
For the compound `Cn1c(=O)n(-c2ccc(C(C)(C)C#N)cc2)c2c3cc(-c4cnc5ccccc5c4)ccc3ncc21` [DACTOLISIB], the Kd (in test [1]; on Ephrin type-B receptor 3; in test [3]) was > 30 µM (inactive) throughout.

These data come from ChEMBL document CHEMBL3991601, “The target landscape of clinical kinase drugs” (Science, 2017).
